System: Her2
Experiment: Degradation of Her2 in BT-474 cells, SDS-PAGE/immunoblot, Method 1
Type: cell-based, human
Details: 0.5 μM, overnight in DMEM medium
Experimental: BT-474 cells were treated with 0.5 μM, 2 μM, or 5 μM of 17AAG (a positive control) or 0.5 μM, 2 μM, or 5 μM of a compound of the invention overnight in DMEM medium. After treatment, each cytoplasmic sample was prepared from 1×10^6 cells by incubation of cell lysis buffer (#9803, Cell Signaling Technology) on ice for 10 minutes. The resulting supernatant used as the cytosol fractions was dissolved with sample buffer for SDS-PAGE and run on a SDS-PAGE gel, blotted onto a nitrocellulose membrane by using semi-dry transfer. Non-specific binding to nitrocellulose is blocked with 5% skim milk in TBS with 0.5% Tween at room temperature for 1 hour, then probed with anti-Her2/ErB2 mAb (rabbit IgG, #2242, Cell Signaling) and anti-Tubulin (T9026, Sigma) as housekeeping control protein. HRP-conjugated goat anti-rabbit IgG (H+L) and HRP-conjugated horse anti-mouse IgG (H+L) were used as secondary Ab (#7074, #7076, Cell Signaling) and LumiGLO reagent, 20× Peroxide (#7003, Cell Signaling) is used for visualization.
BT-474 cells were treated with 0.5 μM, 2 μM, or 5 μM of 17AAG (a positive control) or 0.5 μM, 2 μM, or 5 μM of a compound of the invention overnight in DMEM medium. After treatment, each cytoplasmic sample was prepared from 1×10^6 cells by incubation of cell lysis buffer (#9803, Cell Signaling Technology) on ice for 10 minutes. […]

For `C=CCNC1=C2C[C@@H](C)C[C@H](OC)[C@H](O)[C@@H](C)/C=C(\C)[C@H](OC(N)=O)[C@@H](OC)/C=C\C=C(/C)C(=O)NC(=CC1=O)C2=O` [Compound 17AAG, 17-allylamino-17-demethoxygeldanamycin], the “Degradation of Her2 (Western blot)” value was “partial degradation”.
